The results in this text go back to patent US20240182481A1 (Tango Therapeutics, Inc., priority 2021, published 2024).

In experiment [1] the test system is HCC1954 (BRCA1 WT) cell line. The experiment is described as follows: Viability assay in BRCA1 WT cell line HCC1954. The conditions noted are these: Homo sapiens, read-out: HCC 1954 IC50 rel IC50. It counts as cell-based. From the text: (§1) Table 1 also indicates IC50 values in a viability assay for a non-isogenic pair of BRCA1 mutant (column 5—MDA-MB-436) and BRCA1 WT (column 6—HCC1954) cell lines. These values indicate the effect of treatment with compound on cell survival.

Experiment [2] concerns MDA-MB-436 (BRCA1 mutant) cell line. Kind of experiment: Viability assay in BRCA1 mutant cell line MDA-MB-436. The note with it: Homo sapiens, BRCA1 mutant MDA-MB-436, read-out: MDA-MB-436 rel IC50. It counts as cell-based.
From the text: as §1

Another experiment deals with monoubiquitinated PCNA. Kind of experiment: AlphaLISA assay measuring monoubiquitinated PCNA in MDA-MB-436. The conditions noted are these: Homo sapiens, read-out: Alpha LISA IC50. The class given is cell-based. From the text: Table 1 also indicates IC50 values for exemplary compounds in an AlphaLISA assay measuring monoubiquitinated PCNA in a BRCA1 mutant cell line (MDA-MB-436; column 7).

The target of a further experiment is USP1-UAF1 (Homo sapiens, UniProt O94782). Kind of experiment: Ubiquitin Rhodamine assay for USP1-UAF1 activity. It counts as biochemical. The protocol: Certain compounds of the disclosure were assessed for USP1-UAF1 activity in a Ubiquitin Rhodamine assay as described in Example 135.

Like-named read-outs stand apart in the source and are kept apart here.

Sequence of USP1-UAF1 (O94782 whole entry): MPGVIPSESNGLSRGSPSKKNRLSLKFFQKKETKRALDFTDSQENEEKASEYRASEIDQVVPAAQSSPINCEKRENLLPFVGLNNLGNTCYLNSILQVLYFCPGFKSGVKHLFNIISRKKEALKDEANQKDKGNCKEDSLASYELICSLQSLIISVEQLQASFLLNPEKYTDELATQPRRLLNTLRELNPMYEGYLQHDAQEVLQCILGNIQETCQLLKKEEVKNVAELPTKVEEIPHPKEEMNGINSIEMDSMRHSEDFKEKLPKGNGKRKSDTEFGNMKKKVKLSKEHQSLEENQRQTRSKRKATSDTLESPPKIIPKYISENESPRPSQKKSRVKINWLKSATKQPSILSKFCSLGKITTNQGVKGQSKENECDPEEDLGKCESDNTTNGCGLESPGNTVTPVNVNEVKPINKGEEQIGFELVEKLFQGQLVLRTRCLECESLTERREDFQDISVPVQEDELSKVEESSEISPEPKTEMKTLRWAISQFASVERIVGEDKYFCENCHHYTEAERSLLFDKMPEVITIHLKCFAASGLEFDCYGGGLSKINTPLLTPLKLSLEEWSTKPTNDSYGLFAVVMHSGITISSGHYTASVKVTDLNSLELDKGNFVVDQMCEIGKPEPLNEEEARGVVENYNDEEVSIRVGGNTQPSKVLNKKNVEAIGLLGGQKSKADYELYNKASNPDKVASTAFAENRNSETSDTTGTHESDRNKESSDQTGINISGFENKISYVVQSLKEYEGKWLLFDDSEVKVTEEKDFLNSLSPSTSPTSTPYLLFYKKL
Sequence of USP1-UAF1 (Q8TAF3 whole entry partner): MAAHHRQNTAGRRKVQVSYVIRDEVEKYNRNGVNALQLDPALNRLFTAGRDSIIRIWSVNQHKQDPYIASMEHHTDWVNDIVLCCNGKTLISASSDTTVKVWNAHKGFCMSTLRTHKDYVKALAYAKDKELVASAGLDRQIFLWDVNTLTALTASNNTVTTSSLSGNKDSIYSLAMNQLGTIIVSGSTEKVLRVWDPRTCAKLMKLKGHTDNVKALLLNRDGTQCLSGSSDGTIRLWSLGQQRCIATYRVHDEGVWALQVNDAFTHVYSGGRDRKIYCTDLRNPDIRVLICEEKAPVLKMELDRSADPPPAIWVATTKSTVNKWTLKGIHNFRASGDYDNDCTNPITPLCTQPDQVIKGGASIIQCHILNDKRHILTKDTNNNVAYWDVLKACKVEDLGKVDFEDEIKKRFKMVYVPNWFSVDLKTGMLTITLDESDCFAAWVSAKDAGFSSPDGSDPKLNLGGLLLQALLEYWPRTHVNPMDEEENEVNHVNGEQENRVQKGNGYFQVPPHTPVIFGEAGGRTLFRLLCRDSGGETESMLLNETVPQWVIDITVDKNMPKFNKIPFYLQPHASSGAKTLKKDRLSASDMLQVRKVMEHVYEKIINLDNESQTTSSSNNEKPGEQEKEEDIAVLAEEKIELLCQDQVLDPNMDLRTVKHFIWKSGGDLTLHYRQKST

Turning to `Cn1cc(C(F)(F)F)nc1-c1ccc(Cc2n[nH]c3cnc(-c4c(OC(F)F)ncnc4C4CC4)nc23)cc1` [Compound 185, 5-[4-cyclopropyl-6-(difluoromethoxy)pyrimidin-5-yl]-3-[[4-[1-methyl-4-(trifluoromethyl)imidazol-2-yl]phenyl]methyl]-1H-pyrazolo[4,3-d]pyrimidine], the half-inhibitory concentration (IC50) (as a rule, the concentration needed to halve the response being measured) in experiment [1] is not below 10000 nM; in experiment [2] (MDA-MB-436, viability) it was less than 100 nM; with monoubiquitinated PCNA, less than 100 nM; against USP1-UAF1 it was less than 30 nM.
As for `COCCn1cc(Cc2ccc(-c3nc(C(F)(F)F)cn3C)cc2)c2nc(-c3c(OC)ncnc3C3CC3)ncc21` [Compound 200, 2-(4-cyclopropyl-6-methoxy-pyrimidin-5-yl)-5-(2-methoxyethyl)-7-[[4-[1-methyl-4-(trifluoromethyl)imidazol-2-yl]phenyl]methyl]pyrrolo[3,2-d]pyrimidine], the IC50 in experiment [1] was not below 10000 nM; in experiment [2] (MDA-MB-436, viability) it was less than 100 nM; with monoubiquitinated PCNA, less than 100 nM; against USP1-UAF1 it was 30 to 100 nM.
Turning to `COc1ncnc(C2CC2)c1-c1ncc2[nH]nc(Cc3cc(F)c(-c4nc(C(F)(F)F)cn4C)c(F)c3)c2n1` [Compound 171, 5-(4-cyclopropyl-6-methoxy-pyrimidin-5-yl)-3-[[3,5-difluoro-4-[1-methyl-4-(trifluoromethyl)imidazol-2-yl]phenyl]methyl]-1H-pyrazolo[4,3-d]pyrimidine], the IC50 in experiment [1] is not below 10000 nM; in experiment [2] (MDA-MB-436, viability) it was less than 100 nM; with monoubiquitinated PCNA, less than 100 nM; against USP1-UAF1, less than 30 nM.
Regarding `COc1ncnc(C2CC2)c1-c1ncc2nn(C(C)=O)c(Cc3ccc(-c4nc(C(F)(F)F)cn4C)cc3)c2n1` [Compound 101, 1-(5-(4-cyclopropyl-6-methoxypyrimidin-5-yl)-3-(4-(1-methyl-4-(trifluoromethyl)-1H-imidazol-2-yl)benzyl)-2H-pyrazolo[4,3-d]pyrimidin-2-yl)ethan-1-one], the IC50 in experiment [1] is not below 10000 nM; in experiment [2] (viability) it was less than 100 nM; in the experiment with monoubiquitinated PCNA, less than 100 nM; at USP1-UAF1, 30 to 100 nM.
For `COc1ncnc(C2CC2)c1-c1ncc2[nH]cc(Cc3ccc(-c4nc(C(F)(F)F)cn4C)c(F)c3)c2n1` [Compound 153, 2-(4-cyclopropyl-6-methoxy-pyrimidin-5-yl)-7-[[3-fluoro-4-[1-methyl-4-(trifluoromethyl)imidazol-2-yl]phenyl]methyl]-5H-pyrrolo[3,2-d]pyrimidine], the IC50 in experiment [1] is not below 10000 nM; in experiment [2] (MDA-MB-436, viability) it was less than 100 nM; in the experiment with monoubiquitinated PCNA, less than 100 nM; on USP1-UAF1, less than 30 nM.
For the compound `[2H]C([2H])([2H])Oc1ncnc(C2CC2)c1-c1ncc2[nH]cc(Cc3ccc(-c4nc(C(F)(F)F)cn4C)cc3)c2n1` [Compound 204, 2-[4-cyclopropyl-6-(trideuteriomethoxy)pyrimidin-5-yl]-7-[[4-[1-methyl-4-(trifluoromethyl)imidazol-2-yl]phenyl]methyl]-5H-pyrrolo[3,2-d]pyrimidine], the IC50 is not below 10000 nM in experiment [1]; less than 100 nM in experiment [2] (MDA-MB-436, viability); less than 100 nM in the experiment on monoubiquitinated PCNA; less than 30 nM against USP1-UAF1.
As to `COC(c1ccc(-c2nc(C(F)(F)F)cn2C)cc1)c1c[nH]c2cnc(-c3ccccc3C(C)C)nc12` (centres unmarked) [Compound 73, 2-(2-isopropylphenyl)-7-[methoxy-[4-[1-methyl-4-(trifluoromethyl)imidazol-2-yl]phenyl]methyl]-5H-pyrrolo[3,2-d]pyrimidine], the IC50 in experiment [1] is 250 to 10000 nM; in experiment [2] (MDA-MB-436, viability), 250 to 10000 nM; in the experiment on monoubiquitinated PCNA, 100 to 250 nM; at USP1-UAF1 it was 100 to 10000 nM.
For the compound `CNCc1[nH]c2cnc(-c3cccnc3C3CC3)nc2c1Cc1ccc(-c2nc(C(F)(F)F)cn2C)cc1` [Compound 178, 1-[2-(2-cyclopropyl-3-pyridyl)-7-[[4-[1-methyl-4-(trifluoromethyl)imidazol-2-yl]phenyl]methyl]-5H-pyrrolo[3,2-d]pyrimidin-6-yl]-N-methyl-methanamine], the IC50 in experiment [1] was 250 to 10000 nM; in experiment [2] (MDA-MB-436, viability), less than 100 nM; in the experiment with monoubiquitinated PCNA, less than 100 nM; against USP1-UAF1, 30 to 100 nM.
For the compound `C[C@@H](Oc1ncccc1-c1ncc2[nH]cc(Cc3ccc(-c4nc(C(F)(F)F)cn4C)cc3)c2n1)C(F)(F)F` (single isomer, unassigned) [Compound 21], the IC50 is 250 to 10000 nM in experiment [1]; less than 100 nM in experiment [2] (MDA-MB-436, viability); less than 100 nM in the experiment on monoubiquitinated PCNA; less than 30 nM against USP1-UAF1.
With `COc1ncnc(C2CC2)c1-c1ncc2[nH]cc(Cc3ccc(-c4nc(C(F)(F)F)cn4C4CN(C)C4)cc3)c2n1` [Compound 18, 2-(4-cyclopropyl-6-methoxypyrimidin-5-yl)-7-(4-(1-(1-methylazetidin-3-yl)-4-(trifluoromethyl)-1H-imidazol-2-yl)benzyl)-5H-pyrrolo[3,2-d]pyrimidine], the IC50 in experiment [1] was not below 10000 nM; in experiment [2] (MDA-MB-436, viability) it was 100 to 250 nM; in the experiment on monoubiquitinated PCNA, 100 to 250 nM; at USP1-UAF1, 100 to 10000 nM.
Turning to `COc1nc(C)nc(C2CC2)c1-c1ncc2[nH]nc(Cc3ccc(-c4nc(C(F)(F)F)cn4C)cc3)c2n1` [Compound 184, 5-(4-cyclopropyl-6-methoxy-2-methylpyrimidin-5-yl)-3-(4-(1-methyl-4-(trifluoromethyl)-1H-imidazol-2-yl)benzyl)-1H-pyrazolo[4,3-d]pyrimidine], the half-maximal inhibitory concentration (IC50) in experiment [1] was 250 to 10000 nM; in experiment [2] (MDA-MB-436, viability), less than 100 nM; with monoubiquitinated PCNA, less than 100 nM; on USP1-UAF1 it was 30 to 100 nM.
Take `COc1ncnc(C2CC2)c1-c1ncc2c(n1)c(Cc1ccc(-c3nc(C(F)(F)F)cn3C)cc1)cn2C(C)C` [Compound 91]: the IC50 was not below 10000 nM in experiment [1]; 100 to 250 nM in experiment [2] (MDA-MB-436, viability); 100 to 250 nM with monoubiquitinated PCNA; 100 to 10000 nM against USP1-UAF1.
On to `COc1ncnc(C2CC2)c1-c1ncc2[nH]cc(Sc3ccc(-c4nc(C(F)(F)F)cn4C)cc3)c2n1` [Compound 180], for which the IC50 in experiment [1] is not below 10000 nM; in experiment [2] (MDA-MB-436, viability) it was 100 to 250 nM; with monoubiquitinated PCNA, 100 to 250 nM; at USP1-UAF1 it was 100 to 10000 nM.
In the case of `[2H]C([2H])([2H])n1cc(C(F)(F)F)nc1-c1ccc(Cc2c[nH]c3cnc(-c4c(OC)ncnc4C4CC4)nc23)cc1` [Compound 135, 2-(4-cyclopropyl-6-methoxy-pyrimidin-5-yl)-7-[[4-[1-(trideuteriomethyl)-4-(trifluoromethyl)imidazol-2-yl]phenyl]methyl]-5H-pyrrolo[3,2-d]pyrimidine], the concentration for half-maximal inhibition (IC50) was not below 10000 nM in experiment [1]; less than 100 nM in experiment [2] (MDA-MB-436, viability); less than 100 nM in the experiment on monoubiquitinated PCNA; less than 30 nM on USP1-UAF1.
For `COc1ncnc(OC)c1-c1ncc2[nH]cc(Cc3ccc(-c4nc(C(F)(F)F)cn4C)cc3)c2n1` [Compound 100], the IC50 in experiment [1] was not below 10000 nM; in experiment [2] (MDA-MB-436, viability), 100 to 250 nM; in the experiment with monoubiquitinated PCNA, less than 100 nM; against USP1-UAF1, 30 to 100 nM.
`Cn1cc(C(F)(F)F)nc1-c1ccc(Nc2c[nH]c3cnc(-c4ccccc4C4CC4)nc23)cc1` [Compound 12, 2-(2-cyclopropylphenyl)-N-[4-[1-methyl-4-(trifluoromethyl)imidazol-2-yl]phenyl]-5H-pyrrolo[3,2-d]pyrimidin-7-amine]: the IC50 in experiment [1] was in the range of 250 to 10000 nM; in experiment [2] (MDA-MB-436, viability), 250 to 10000 nM; in the experiment with monoubiquitinated PCNA, 250 to 10000 nM; at USP1-UAF1 it was 100 to 10000 nM.
As for `CC(C)c1ccccc1-c1ncc2[nH]cc([C@@H](C)c3ccc(-c4nc(C(F)(F)F)cn4C)cc3)c2n1` (single isomer, unassigned) [Compound 82], the IC50 in experiment [1] is 250 to 10000 nM; in experiment [2] (MDA-MB-436, viability), less than 100 nM; in the experiment on monoubiquitinated PCNA it was less than 100 nM; against USP1-UAF1 it was less than 30 nM.
